The text below walks through data of patent publication US11673878B2, “Benzazepine derivatives” (OTSUKA PHARMACEUTICAL CO., LTD., priority 2017, dated 2023).

For series [1], the target named is T1, rat vasopressin V1a receptor (Rattus norvegicus, UniProt P30560).
T1 construct: V1a receptor fractions derived from rat hepatic membrane; from tissue; host or cells: rat liver (hepatic membrane)
Put plainly: Binding inhibition test for rat V1a receptor (3H-AVP, rat hepatic membrane). The settings on record: inhibition of 3H-AVP binding, rat hepatic membrane V1a receptor fractions, 4° C., 2 hours; read-out: Binding affinity rV1a (IC50). As for the experimental part: (§1) Various compounds were studied in binding affinities for vasopressin receptors with an indicator of binding inhibition of rat vasopressin V1a receptor and vasopressin V2 receptor of ^3H-arginine vasopressin (AVP) (NET800, available from PerkinElmer Inc., Life Sciences).
(1) Binding Inhibition Test for Rat V1a Receptor (rV1aR)
50 μg of V1a receptor fractions derived from rat hepatic membrane were diluted with a reaction solution (100 mM Tris-HCl (pH 8.0), 0.1% BSA, 5 mM MgCl2, 1 mM EDTA) and added to each well of a 96-well plate. A compound was added to each well in various concentrations (0.3 nM to 100 nM), and ^3H-AVP was added thereto in the range of 1 nM to 3 nM. Reactions were carried out at 4° C. for 2 hours on the plate. Via receptor fractions were collected with a 96-well glass filter (Unifilter GF/B) after the reactions and washed with a washing solution (10 mM Tris-HCl (pH 8.0), 5 mM MgCl2, 1 mM EDTA) three times, and then the radioactivity of ^3H-AVP was measured with a scintillation counter.
(§2) ^3H-AVP binding rate in the presence of a compound was calculated by the following equation. Binding rate (%)=(B−NSB)/(TB−NSB)×100 (B: Binding amount of ^3H-AVP in the presence of each compound, NSB: Binding amount of ^3H-AVP in the presence of 1 μM of unlabeled AVP, TB: Binding amount of ^3H-AVP in the absence of 1 μM of unlabeled AVP)

The target in series [2] is T2, rat vasopressin V2 receptor (Rattus norvegicus, UniProt Q00788).
T2 construct: expressed in transfected cells; host or cells: CHO cells (rV2R-CHO)
The series can be described thus: Binding inhibition test for rat V2 receptor (3H-AVP, rV2R-CHO cells). The note with it: inhibition of 3H-AVP binding, 4° C., 2 hours, read-out: Binding affinity rV2 (IC50). As for the experimental part: as §1
(2) Binding Inhibition Test for Rat V2 Receptor (rV2R)
Rat V2 receptor-expressed CHO cells (rV2R—CHO) were incubated on 10% FBS-containing DMEM/F12 in a 24-well plate, and each cell was washed with D-PBS twice. A reaction solution (D-PBS containing 0.1% BSA and 0.05% sodium azide) comprising a compound in various concentrations (0.3 nM to 100 nM) was added to each well, and a certain amount of ^3H-AVP was added thereto (100-fold dilution). Reactions were carried out at 4° C. for 2 hours on the plate. Then, each well was washed with D-PBS twice and 0.1N NaOH was added to each well. The cells were collected, and the radioactivity of ^3H-AVP was measured with a scintillation counter.
as §2

Series [3] is described as follows: Metabolic stability test in human liver microsomes. Type of series: in vitro ADME. The note with it: pH 7.4; human liver microsomes 1 mg/mL, test compound 1 μmol/L, NADPH and NADH, 37° C., n = 4; read-out: CLint (μL/min/mg) mean ± SD. As to the method: Reaction System and Incubation
According to methods of Obach and Jones, et al. (methods described in R. S. Obach, Drug Metab. Dispos. 1999 (27): 1350-1359 and H. Jones and J. B. Houston, Drug Metab. Dispos. 2004 (32): 973-982), the reaction system shown below was prepared and metabolic stabilities of test compounds (the present compounds and, tolvaptan) were evaluated using the reaction system shown below. Human liver microsomes purchased from Corning Inc. were used. Test compounds were dissolved in DMSO at the concentration of 10 mmol/L and then diluted with acetonitrile to prepare a 100 μmol/L solution for use in the test. The 100 μmol/L solutions were used in the experiment.
Human liver microsome 1 mg/mL
Co-factor (NADPH and NADH) 1 mmol/L each
Magnesium chloride 5 mmol/L
100 mmol/L Potassium phosphate buffer (pH 7.4)
The reaction mixture without co-factors was pre-incubated at 37° C. for 5 minutes, and then the reaction was initiated by the addition of the co-factors. The mixture was incubated for 0, 5, 10, 20, 30, and 60 minutes after the addition of the co-factors. An aliquot of the reaction mixture was removed and added to a methanol solution containing an internal standard (IS) and mixed to terminate the reaction at each predetermined time.
After the reaction was terminated, the mixture was separated by centrifugation and the supernatant was injected into a liquid chromatograph-tandem mass spectrometer (LC-MS/MS) to measure unchanged substances remained in the reaction system. The mass spectrometer was operated in a positive ion mode of the electrospray ionization (ESI) method. Unchanged substances and the IS were detected by multiple reaction monitoring (MRM) transitions using selected precursor and product ions set.
The remaining ratios of test compounds were calculated by the following equation. Remaining ratio=(Peak area ratio of a test compound to IS at t minutes after incubation)÷(Peak area ratio of a test compound to IS at 0 minute)
The slope of X-axis (the incubation time) and Y-axis (logarithm of the remaining ratio) was calculated by a non-linear least square method. Hepatic intrinsic clearance (CLint) was calculated by the following equation. CLint(μL/min/mg)=−(Slope(min^−1))÷1(mg/mL)×1000
On the technique in general: Microsomes from liver hold many membrane-bound enzymes, among them those of drug oxidation.

A short description of series [4]: Pharmacokinetics study in mice, single oral dose. The format is in vivo. The settings on record: mouse; male ICR mice, single-dose oral administration of 30 mg/kg, plasma. As for the experimental part:
A pharmacokinetics (PK) study was performed using male ICR mice to compare the oral absorption properties of the present compounds with tolvaptan. A test compound was suspended in a 1% hydroxypropyl methylcellulose (HPMC) solution to be adjusted to the concentration of 4.5 mg/mL. The present compounds were used as the forms obtained in the above examples (including the amorphous form) for a test compound, or used after spray drying, if needed.
Male ICR mice (7-week old) were freely fed food and water and weighed on an electronic scale. Then, a test compound was orally administered at the dose of 30 mg/kg […]. After the oral administration, blood was collected from the abdominal vena cava under isoflurane anesthesia using a 1 mL heparinized syringe with a 26 G injection needle. Blood was separated by centrifugation at 4° C., 3000 rpm for 10 minutes to give plasma in a supernatant. The plasma concentration of a test compound was measured by LC-MS/MS.
The following PK parameters were calculated using the mean plasma concentrations of unchanged substances obtained from two animals at each time point.
Cmax: Maximum plasma concentration (μg/mL)
tmax: Time-to-maximum plasma concentration (h)
AUCinf: Area under the plasma concentration-time curve from administration to infinite time (μg h/mL)

A value given as a limit tells only on which side of the number the result lay.

T1 sequence (P30560 whole entry): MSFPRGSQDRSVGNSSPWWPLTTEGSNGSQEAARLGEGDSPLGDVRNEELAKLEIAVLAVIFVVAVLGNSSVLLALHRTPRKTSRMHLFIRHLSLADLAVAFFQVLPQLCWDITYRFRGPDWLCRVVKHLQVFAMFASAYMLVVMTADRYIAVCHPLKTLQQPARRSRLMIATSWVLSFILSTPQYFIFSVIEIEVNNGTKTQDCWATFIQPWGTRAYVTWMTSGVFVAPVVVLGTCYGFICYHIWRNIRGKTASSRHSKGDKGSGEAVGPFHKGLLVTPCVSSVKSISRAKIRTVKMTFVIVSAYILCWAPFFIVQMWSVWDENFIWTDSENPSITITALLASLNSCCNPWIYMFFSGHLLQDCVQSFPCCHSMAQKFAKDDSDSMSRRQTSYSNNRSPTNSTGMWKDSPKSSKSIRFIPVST
T2 sequence (Q00788 whole entry): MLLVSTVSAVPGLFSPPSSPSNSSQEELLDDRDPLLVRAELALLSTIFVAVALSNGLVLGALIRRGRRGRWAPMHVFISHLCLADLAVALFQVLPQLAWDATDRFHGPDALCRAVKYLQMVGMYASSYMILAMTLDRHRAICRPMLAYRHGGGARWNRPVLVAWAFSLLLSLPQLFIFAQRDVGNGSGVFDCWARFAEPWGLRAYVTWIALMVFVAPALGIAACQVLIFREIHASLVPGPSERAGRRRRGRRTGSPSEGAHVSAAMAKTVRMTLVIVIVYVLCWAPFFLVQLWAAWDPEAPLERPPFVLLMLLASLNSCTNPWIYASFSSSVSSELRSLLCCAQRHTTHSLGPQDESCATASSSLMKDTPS

A word on the IC50: it is the concentration at which inhibition is half-maximal. In general, AUC(0-inf) refers to the area under the concentration-time curve extrapolated to infinity. A high value points to more exposure. A word on the Cmax: it is the peak of the concentration-time curve. In general, Tmax refers to the time at which the peak concentration occurs. `O=C(Nc1ccc(C(=O)N2CCC(F)(F)[C@](O)(CO)c3cc(Cl)ccc32)cn1)c1cc(F)ccc1-c1ccccc1F` [Example 165, N-{5-[(5R)-7-chloro-4,4-difluoro-5-hydroxy-5-(hydroxymethyl)-2,3,4,5-tetrahydro-1H-1-benzazepine-1-carbonyl]pyridin-2-yl}-2′,4-difluoro-[1,1′-biphenyl]-2-carboxamide]: the IC50 in series [1] stood at 1.7 nM. The IC50 in series [2] stood at 3.4 nM. Moreover, the microsomal CLint at 1 μmol/L in series [3] was 3.61 ± 2.43 µL/min/mg. Besides, in series [4], the AUC(0-inf) worked out at 41500 ng·h/mL, the Cmax was 7720 ng/mL and the Tmax worked out at 1 h.

With `O=C(Nc1ccc(C(=O)N2CCC(F)(F)[C@](O)(CO)c3cc(Cl)ccc32)cc1F)c1cc(F)ccc1-c1ccccc1F` [Example 168, N-{4-[(5R)-7-chloro-4,4-difluoro-5-hydroxy-5-(hydroxymethyl)-2,3,4,5-tetrahydro-1H-1-benzazepine-1-carbonyl]-2-fluorophenyl}-2′,4-difluoro-[1,1′-biphenyl]-2-carboxamide], the IC50 in series [1] is 2.2 nM. Moreover, the IC50 in series [2] amounted to 4.7 nM. For the same compound, the microsomal CLint at 1 μmol/L in series [3] was 7.48 ± 1.5 µL/min/mg. Moreover, in series [4], the AUC(0-inf) amounted to 40900 ng·h/mL, the highest level (Cmax) was 7110 ng/mL and the Tmax worked out at 1 h.

Consider `O=C(Nc1ccc(C(=O)N2CCC(F)(F)[C@](O)(CO)c3cc(Cl)ccc32)cc1)c1cc(F)ccc1-c1ccccc1F` [Example 169, N-{4-[(5R)-7-chloro-4,4-difluoro-5-hydroxy-5-(hydroxymethyl)-2,3,4,5-tetrahydro-1H-1-benzazepine-1-carbonyl]phenyl}-2′,4-difluoro-[1,1′-biphenyl]-2-carboxamide], for which, in series [1], the IC50 was 1.6 nM. For the same compound, in series [2], the IC50 amounted to 3.3 nM. In addition, the microsomal CLint at 1 μmol/L in series [3] was found to be 5.09 ± 0.32 µL/min/mg. In addition, in series [4], the area under the curve AUC(0-inf) came to 32200 ng·h/mL, the Cmax is 5650 ng/mL and the Tmax was 1 h.

`O=C1c2cc(F)ccc2CCN1c1ccc(C(=O)N2CCC(F)(F)[C@](O)(CO)c3cc(Cl)ccc32)cc1` [Example 187, 2-{4-[(5R)-7-chloro-4,4-difluoro-5-hydroxy-5-(hydroxymethyl)-2,3,4,5-tetrahydro-1H-1-benzazepine-1-carbonyl]phenyl}-7-fluoro-1,2,3,4-tetrahydroisoquinolin-1-one]: in series [1], the IC50 came to 2.6 nM. Further, the IC50 in series [2] was 0.4 nM. For the same compound, in series [3], the microsomal CLint at 1 μmol/L was less than 4 µL/min/mg. Also, in series [4], the AUC(0-inf) was 5440 ng·h/mL, the concentration peaked (Cmax) at 2040 ng/mL and the time of peak concentration (Tmax) came to 1 h.
